Laboratory results published in ChEMBL document CHEMBL3751668, “A Pyrazolo[3,4-d]pyrimidin-4-amine Derivative Containing an Isoxazole Moiety Is a Selective and Potent Inhibitor of RET Gatekeeper Mutants” (J Med Chem, 2016).

What was measured:
[1] = Cytotoxicity against human Nthy-ori 3-1 cells after 10 days by MTT assay; assay type: cell-based
[2] = target: Proto-oncogene tyrosine-protein kinase receptor Ret (Homo sapiens, UniProt P07949, V804M); test: Inhibition of human Ret V804M mutant by radiometric assay in presence of [gamma-33P]-ATP
[3] = test system: Proto-oncogene tyrosine-protein kinase receptor Ret (Homo sapiens), P07949 [C634W]; settings: TT
Description: Inhibition of RET C634W mutant in human TT cells assessed as cell growth inhibition after 10 days by MTT assay

[4] = test system: Proto-oncogene tyrosine-protein kinase receptor Ret (Homo sapiens), P07949 [V804M]; settings: BaF3
[5] = target: T1, Proto-oncogene tyrosine-protein kinase receptor Ret (Homo sapiens, UniProt P07949); settings: BaF3
Description: Inhibition of wild type TEL-fused RET (unknown origin) expressed in mouse BA/F3 cells assessed as cell growth inhibition after 48 hrs by MTT assay

[6] = target: T1, Proto-oncogene tyrosine-protein kinase receptor Ret; test: Inhibition of human wild type RET by radiometric assay in presence of [gamma-33P]-ATP
[7] = Cytotoxicity against mouse BAF3 cells after 48 hrs by MTT assay; assay type: cell-based
[8] = test system: Proto-oncogene tyrosine-protein kinase receptor Ret (Homo sapiens), P07949 [S891A]; settings: BaF3
[9] = Cell cycle arrest in human Nthy-ori 3-1 cells assessed as accumulation at G2 phase at 10 uM after 24 hrs by […] staining-based flow cytometric analysis; settings: nthy-ori 3-1, 24 h
[10] = Induction of apoptosis in human Nthy-ori 3-1 cells at 10 uM after 48 hrs by annexinV/PI staining-based flow cytometric analysis; assay type: cell-based; settings: nthy-ori 3-1, 48 h
TT [11] = test: Cytotoxicity against human TT cells assessed as suppression of anchorage-independent growth at 1 uM for 30 days by soft agar assay; assay type: functional
[12] = test system: Proto-oncogene tyrosine-protein kinase receptor Ret (Homo sapiens), P07949 [V804L]; settings: BaF3
[13] = target: Proto-oncogene tyrosine-protein kinase receptor Ret (Homo sapiens, UniProt P07949, V804L); test: Inhibition of human Ret V804L mutant by radiometric assay in presence of [gamma-33P]-ATP
TT [14] = test: Cytotoxicity against human TT cells assessed as suppression of anchorage-independent growth at 0.3 to 1 uM for 30 days by soft agar assay; assay type: functional
[15] = target: Proto-oncogene tyrosine-protein kinase receptor Ret (Homo sapiens, UniProt P07949, Y791F); test: Inhibition of human Ret Y791F mutant by radiometric assay in presence of [gamma-33P]-ATP
[16] = target: Proto-oncogene tyrosine-protein kinase receptor Ret (Homo sapiens, UniProt P07949, M918T); test: Inhibition of human Ret M918T mutant by radiometric assay in presence of [gamma-33P]-ATP
[17] = Cell cycle arrest in human Nthy-ori 3-1 cells at 1 to 10 uM after 24 hrs by […] staining-based flow cytometric analysis; settings: nthy-ori 3-1, 24 h
[18] = target: Proto-oncogene tyrosine-protein kinase receptor Ret (Homo sapiens, UniProt P07949, G691S); test: Inhibition of human Ret G691S mutant by radiometric assay in presence of [gamma-33P]-ATP
[19] = target: Proto-oncogene tyrosine-protein kinase receptor Ret (Homo sapiens, UniProt P07949, S891A); test: Inhibition of human Ret S891A mutant by radiometric assay in presence of [gamma-33P]-ATP
[20] = Induction of apoptosis in human Nthy-ori 3-1 cells at 1 to 10 uM after 48 hrs by annexinV/PI staining-based flow cytometric analysis; assay type: cell-based; settings: nthy-ori 3-1, 48 h

Proto-oncogene tyrosine-protein kinase receptor Ret (Homo sapiens), P07949 [V804M], sequence (P07949 whole entry V804M): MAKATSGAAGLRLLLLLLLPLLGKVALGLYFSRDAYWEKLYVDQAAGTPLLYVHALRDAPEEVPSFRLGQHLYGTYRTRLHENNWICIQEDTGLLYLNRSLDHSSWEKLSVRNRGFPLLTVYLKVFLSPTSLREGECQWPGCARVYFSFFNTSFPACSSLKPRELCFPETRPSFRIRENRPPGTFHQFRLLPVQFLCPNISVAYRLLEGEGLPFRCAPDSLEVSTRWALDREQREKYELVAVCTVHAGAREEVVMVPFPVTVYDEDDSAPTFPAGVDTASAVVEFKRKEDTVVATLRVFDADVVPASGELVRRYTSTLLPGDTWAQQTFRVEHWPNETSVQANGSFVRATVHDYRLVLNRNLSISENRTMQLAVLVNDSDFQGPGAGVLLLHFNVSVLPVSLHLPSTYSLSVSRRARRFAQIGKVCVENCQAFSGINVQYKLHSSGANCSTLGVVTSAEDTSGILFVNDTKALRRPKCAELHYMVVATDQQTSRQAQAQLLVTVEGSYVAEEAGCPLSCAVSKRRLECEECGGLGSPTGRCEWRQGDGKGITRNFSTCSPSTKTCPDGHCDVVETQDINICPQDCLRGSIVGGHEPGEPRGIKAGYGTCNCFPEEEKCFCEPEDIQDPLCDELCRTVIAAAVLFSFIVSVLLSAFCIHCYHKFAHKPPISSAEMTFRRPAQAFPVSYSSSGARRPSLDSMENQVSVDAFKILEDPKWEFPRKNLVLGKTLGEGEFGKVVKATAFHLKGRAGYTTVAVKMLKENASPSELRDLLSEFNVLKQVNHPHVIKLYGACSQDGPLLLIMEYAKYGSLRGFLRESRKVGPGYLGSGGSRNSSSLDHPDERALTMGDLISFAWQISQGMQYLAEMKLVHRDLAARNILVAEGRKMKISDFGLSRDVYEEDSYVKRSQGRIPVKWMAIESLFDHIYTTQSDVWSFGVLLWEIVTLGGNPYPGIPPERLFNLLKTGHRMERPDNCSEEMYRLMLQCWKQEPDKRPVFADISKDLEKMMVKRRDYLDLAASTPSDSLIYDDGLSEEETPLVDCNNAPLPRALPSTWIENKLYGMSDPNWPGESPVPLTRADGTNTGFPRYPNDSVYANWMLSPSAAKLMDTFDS
T1 sequence (P07949 whole entry): as the sequence (P07949 whole entry V804M) above, with M804V counted along it
Proto-oncogene tyrosine-protein kinase receptor Ret (Homo sapiens), P07949 [C634W], sequence (P07949 whole entry C634W): as the sequence (P07949 whole entry V804M) above, with C634W, M804V counted along it
Proto-oncogene tyrosine-protein kinase receptor Ret (Homo sapiens, UniProt P07949, V804M), sequence (P07949 29-1114 V804M limits assumed): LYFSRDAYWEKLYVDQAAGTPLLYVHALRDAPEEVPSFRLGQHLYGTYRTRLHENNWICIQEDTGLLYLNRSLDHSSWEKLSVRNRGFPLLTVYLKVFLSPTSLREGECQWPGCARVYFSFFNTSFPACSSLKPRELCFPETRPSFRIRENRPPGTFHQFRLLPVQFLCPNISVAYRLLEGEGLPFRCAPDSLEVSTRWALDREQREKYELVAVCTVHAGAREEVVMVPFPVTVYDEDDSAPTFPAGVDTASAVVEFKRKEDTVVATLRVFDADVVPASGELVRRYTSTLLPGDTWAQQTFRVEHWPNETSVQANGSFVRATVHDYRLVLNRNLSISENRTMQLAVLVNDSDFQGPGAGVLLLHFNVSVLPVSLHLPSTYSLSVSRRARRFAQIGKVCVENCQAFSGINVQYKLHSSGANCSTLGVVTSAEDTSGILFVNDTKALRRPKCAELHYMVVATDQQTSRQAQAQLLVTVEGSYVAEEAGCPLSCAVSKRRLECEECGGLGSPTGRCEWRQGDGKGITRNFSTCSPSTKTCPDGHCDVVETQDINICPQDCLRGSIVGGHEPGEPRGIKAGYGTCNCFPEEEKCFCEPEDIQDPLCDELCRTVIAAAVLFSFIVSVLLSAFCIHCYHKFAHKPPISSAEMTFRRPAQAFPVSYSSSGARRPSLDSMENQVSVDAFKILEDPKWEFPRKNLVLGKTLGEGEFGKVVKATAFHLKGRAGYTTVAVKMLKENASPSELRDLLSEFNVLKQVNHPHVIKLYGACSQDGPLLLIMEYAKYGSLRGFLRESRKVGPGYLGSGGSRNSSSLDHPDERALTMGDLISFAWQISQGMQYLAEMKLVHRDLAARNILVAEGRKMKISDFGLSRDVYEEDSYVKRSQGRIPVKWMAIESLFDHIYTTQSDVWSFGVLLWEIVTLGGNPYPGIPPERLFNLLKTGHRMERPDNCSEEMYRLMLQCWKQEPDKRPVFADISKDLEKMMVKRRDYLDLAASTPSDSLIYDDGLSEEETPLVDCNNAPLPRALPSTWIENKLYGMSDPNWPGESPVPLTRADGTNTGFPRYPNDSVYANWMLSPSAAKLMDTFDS
Proto-oncogene tyrosine-protein kinase receptor Ret (Homo sapiens), P07949 [S891A], sequence (P07949 whole entry S891A): as the sequence (P07949 whole entry V804M) above, with M804V, S891A counted along it
Proto-oncogene tyrosine-protein kinase receptor Ret (Homo sapiens), P07949 [V804L], sequence (P07949 whole entry V804L): as the sequence (P07949 whole entry V804M) above, with M804L counted along it
Proto-oncogene tyrosine-protein kinase receptor Ret (Homo sapiens, UniProt P07949, G691S), sequence (P07949 29-1114 G691S limits assumed): as the sequence (P07949 29-1114 V804M limits assumed) above, with G663S, M776V counted along it
Proto-oncogene tyrosine-protein kinase receptor Ret (Homo sapiens, UniProt P07949, Y791F), sequence (P07949 29-1114 Y791F limits assumed): as the sequence (P07949 29-1114 V804M limits assumed) above, with Y763F, M776V counted along it
Proto-oncogene tyrosine-protein kinase receptor Ret (Homo sapiens, UniProt P07949, V804L), sequence (P07949 29-1114 V804L limits assumed): as the sequence (P07949 29-1114 V804M limits assumed) above, with M776L counted along it
Proto-oncogene tyrosine-protein kinase receptor Ret (Homo sapiens, UniProt P07949, S891A), sequence (P07949 29-1114 S891A limits assumed): as the sequence (P07949 29-1114 V804M limits assumed) above, with M776V, S863A counted along it
Proto-oncogene tyrosine-protein kinase receptor Ret (Homo sapiens, UniProt P07949, M918T), sequence (P07949 29-1114 M918T limits assumed): as the sequence (P07949 29-1114 V804M limits assumed) above, with M776V, M890T counted along it

Compound `CC(C)n1nc(-c2ccon2)c2c(N)ncnc21` has a GI50 at 240 h [1] of 18600 nM, an IC50 [2] of 903 nM and a GI50 [3] of 7920 nM. It also gave a GI50 [4] of 8940 nM, a GI50 [5] of 3210 nM and an IC50 [6] of 213 nM. It also gave a GI50 at 48 h [7] of over 10000 nM.

Compound `COc1cc2nccc(Oc3ccc(NC(=O)C4(C(=O)Nc5ccc(F)cc5)CC4)cc3)c2cc1OC` [CABOZANTINIB] has a GI50 at 240 h [1] of 4930 nM, a GI50 [8] of 10 nM and a GI50 [3] of 120 nM. For the same compound, the Activity [9] was “Toxic”, the Activity [10] was “Non-toxic” and the GI50 [4] was 890 nM. For the same compound, the GI50 [5] was 50 nM, the Activity (TT [11]) was under 3 CFU and the GI50 [12] was 910 nM.

For `CC(C)n1nc(-c2cc(Cc3ccccc3)on2)c2c(N)ncnc21`, the GI50 at 240 h [1] was 21500 nM, the IC50 [2] was 1990 nM and the GI50 [3] was over 10000 nM. For the same compound, the GI50 [4] was over 10000 nM, the GI50 [5] was over 10000 nM and the IC50 [6] was 241 nM. The GI50 at 48 h [7] was over 10000 nM.

`CC(C)n1nc(C#Cc2ccccc2)c2c(N)ncnc21` gave an IC50 [13] of 3130 nM, a GI50 at 240 h [1] of 3580 nM and an IC50 [2] of 2650 nM. For the same compound, the GI50 [8] was 350 nM, the GI50 [3] was 2540 nM and the Activity (TT [14]) was 150 CFU. For the same compound, the GI50 [4] was 2600 nM, the GI50 [5] was 610 nM and the IC50 [15] was 14 nM. For the same compound, the IC50 [16] was 57 nM, the Activity [17] was “Non-toxic” and the IC50 [18] was 75 nM. For the same compound, the GI50 at 48 h [7] was 16100 nM, the IC50 [19] was 54 nM and the GI50 [12] was 5430 nM. For the same compound, the Activity [20] was “Non-toxic”.

For `CC(C)n1nc(-c2cc(C(C)(C)C)on2)c2c(N)ncnc21`, the GI50 at 240 h [1] was 24700 nM, the IC50 [2] was 2100 nM and the GI50 [3] was over 10000 nM. The GI50 [4] was 7310 nM, the GI50 [5] was 6120 nM and the IC50 [6] was 210 nM. For the same compound, the GI50 at 48 h [7] was over 10000 nM.

For `CC(C)c1cc(-c2nn(C(C)C)c3ncnc(N)c23)no1`, the GI50 at 240 h [1] was 23700 nM, the IC50 [2] was 355 nM and the GI50 [3] was 5130 nM. The GI50 [4] was 5900 nM, the GI50 [5] was 2400 nM and the IC50 [6] was 41 nM. The GI50 at 48 h [7] was over 10000 nM.
